Results from article PMC10331583, “Control of fibrosis with enhanced safety via asymmetric inhibition of prolyl‐tRNA synthetase 1” (EMBO Molecular Medicine, 2023).

Tests used:
[1] = system: WI‐26 VA4 cells stably expressing EV (empty vector); conditions: human, 72 h
[2] = in vitro; conditions: human, Cytotoxicity
[3] = system: WI‐26 VA4 cells
Experimental: WI‐26 VA4 cells were seeded at 3.5 × 10^4 cells/well on 24 well plates. After 24 h, the cells were starved of serum for 6 h. Then, the cells were incubated with the indicated concentrations of compounds in the presence of TGF‐β (2 ng/ml) (R&D systems, 240‐B‐002) for 72 h. The supernatant of the cells was collected and centrifuged at 500 g for 5 min to remove cell debris. Then, the level of pro‐collagen I in the supernatant was determined using Human Pro‐collagen I alpha 1 DuoSet ELISA (R&D systems, DY6220‐05) and DuoSet ELISA Ancillary Reagent Kit 2 (R&D systems, DY008) following the manufacturer's instructions.

Which “Cytotoxicity HillSlope (best-fit value)” value [1] does the source give for `O=C(CC1NCCCC1O)Cn1cnc2cc(Br)c(Cl)cc2c1=O` (stereo not drawn) [HF, Halofuginone, reference compound] here?
The value was -0.8001.

And the “Cytotoxicity LogIC50 (best-fit value)” value [1]?
The value was 1.811.

What about the activity at 72 h, 0.1 µM ([2]; % of control (single replicates, Experiment #1-#4)) of the same compound?
Its activity at 72 h, 0.1 µM is 34.2%.

And the activity at 72 h, 0.001 µM ([2]; % of control, average)?
The activity at 72 h, 0.001 µM was 101%.

And the activity at 72 h, 0.003 µM ([2]; % of control, average)?
The activity at 72 h, 0.003 µM was 107%.

And the activity at 72 h, 0.03 µM ([2]; % of control, average)?
The activity at 72 h, 0.03 µM was 73.6%.

What about the activity at 72 h, 0.1 µM ([2]; % of control, average) of the same compound?
Its activity at 72 h, 0.1 µM is 42.5%.

What about the activity at 72 h, 1 µM ([2]; % of control, average) of the same compound?
Its activity at 72 h, 1 µM is 19.4%.

What about the “TI (CC50/IC50 for collagen level)” value [3] of the same compound?
Its value is 3.46.
